According to ChEMBL document CHEMBL1201862, “PubChem BioAssay data set” (2004):
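Assay format: 96-well plates, 48-hour exposure. GI50 is the concentration that inhibits growth by half.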 The source made the active and inactive calls. Rule as the data show it: active = GI50 up to about 1.1 µM and inactive = higher.

What was measured:
Experiment in all cases: NCI tumour cell line growth inhibition, 48 h
[1] = system: A549
[2] = system: CCRF-CEM
[3] = system: DMS-273
[4] = system: EKVX
[5] = system: HCC 2998
[6] = system: HCT-116
[7] = system: HOP-62
[8] = system: HOP-92
[9] = system: HT-29
[10] = system: KM12
[11] = system: MDA-MB-435
[12] = system: NCI-H226
[13] = system: NCI-H460
[14] = system: OVCAR-3
[15] = system: OVCAR-8
[16] = system: RPMI-8226
[17] = system: SK-MEL-28
[18] = system: SK-MEL-2
[19] = system: SNB-19
[20] = system: T47D

Compound | GI50 [1] | GI50 [2] | GI50 [3] | GI50 [4] | GI50 [5] | GI50 [6] | GI50 [7] | GI50 [8] | GI50 [9] | GI50 [10] | GI50 [11] | GI50 [12] | GI50 [13] | GI50 [14] | GI50 [15] | GI50 [16] | GI50 [17] | GI50 [18] | GI50 [19] | GI50 [20]
Cc1cc(NC(=O)NC(=O)c2ccccc2NC(=O)CN(C)C)ccc1Oc1ncc(Br)cn1 | 3.54 µM (inactive) | 2.26 µM (inactive) | 3.74 µM (inactive) | 12.9 µM (inactive) | 1.22 µM (inactive) | 1.85 µM (inactive) | 2.76 µM (inactive) | 20.3 µM (inactive) | 1.61 µM (inactive) | 1.36 µM (inactive) | 0.289 µM (active) | 6.76 µM (inactive) | 0.78 µM (active) | 1.04 µM (active) | 6.84 µM (inactive) | 10.4 µM (inactive) | 14.9 µM (inactive) | 10.4 µM (inactive) | 9.77 µM (inactive) | > 100 µM (inactive)
COc1cc([C@@H]2c3cc4c(cc3[C@@H](OC(=O)c3ccc(N)cc3)C3COC(=O)[C@@H]32)OCO4)cc(OC)c1O (stereo partly drawn) | 5.02 µM (inactive) | 6.18 µM (inactive) | 3.43 µM (inactive) | 20.2 µM (inactive) | 12.2 µM (inactive) | 4.45 µM (inactive) | 3.5 µM (inactive) | 3.77 µM (inactive) | 3.21 µM (inactive) | 11.9 µM (inactive) | – | 6.97 µM (inactive) | 3.73 µM (inactive) | 12.9 µM (inactive) | 4.49 µM (inactive) | 7.8 µM (inactive) | 9.48 µM (inactive) | 6.32 µM (inactive) | 20.7 µM (inactive) | –
O=c1c(Cl)c(Cl)cnn1CCCl | 17.9 µM (inactive) | 1.85 µM (inactive) | 5.27 µM (inactive) | 6.73 µM (inactive) | 3.34 µM (inactive) | 5.48 µM (inactive) | 17.3 µM (inactive) | 1.93 µM (inactive) | 2.81 µM (inactive) | 14.4 µM (inactive) | 2.82 µM (inactive) | 23.2 µM (inactive) | 8.13 µM (inactive) | 3.47 µM (inactive) | 3.44 µM (inactive) | 6.5 µM (inactive) | 2.08 µM (inactive) | – | 7.03 µM (inactive) | 3.34 µM (inactive)
Cc1ccc(NC(=O)CCC(=O)C2Cc3ccccc3C2=O)cc1C (stereo not drawn) | > 100 µM (inactive) | > 100 µM (inactive) | > 100 µM (inactive) | > 100 µM (inactive) | > 100 µM (inactive) | > 100 µM (inactive) | > 100 µM (inactive) | > 100 µM (inactive) | > 100 µM (inactive) | > 100 µM (inactive) | – | > 100 µM (inactive) | > 100 µM (inactive) | > 100 µM (inactive) | > 100 µM (inactive) | > 100 µM (inactive) | > 100 µM (inactive) | > 100 µM (inactive) | > 100 µM (inactive) | –
CCC12CCCN(Cc3ccccc3)C1c1c(n(C)c3ccccc13)[C@H](C(=O)OC)C2 (stereo partly drawn) | > 239 µM (inactive) | > 239 µM (inactive) | > 239 µM (inactive) | > 239 µM (inactive) | > 239 µM (inactive) | 146 µM (inactive) | > 239 µM (inactive) | 10.6 µM (inactive) | 32 µM (inactive) | > 239 µM (inactive) | – | > 239 µM (inactive) | > 239 µM (inactive) | > 239 µM (inactive) | > 239 µM (inactive) | > 239 µM (inactive) | > 239 µM (inactive) | > 239 µM (inactive) | > 239 µM (inactive) | –
